Measurements taken from US20260091031A1, “CGRP RECEPTOR ANTAGONISTS FOR TREATING CHEMOTHERAPY-INDUCED NAUSEA AND VOMITING (CINV)” (priority 2022, published 2026).

Legend:
[1] = Accumulation of gepants in trigeminal ganglion and cerebral cortex after oral administration (LC/MS of tissue extracts); format: in vivo; details: rat, 3 mg/kg oral, 6 hrs after administration, transcardially perfused 10 min
Experimental: Animals have been transcardially perfused with cold saline for 10 min in order to remove blood contamination and the possible presence of gepants present in plasma. Upon perfusion, tissue specimens form the cerebral cortex (a region beyond the blood brain barrier) and from the trigeminal ganglion (a region before the blood brain barrier) have been collected and extracted with 10 volumes (weight/volume) of a solution of water/acetonitrile (50%/50%). Tissue extracts have been injected in a LC/MS apparatus to reveal the possible presence of the orally-administered gepants.
FIG. 1. Evaluation of the ability of gepants to accumulate within the trigeminal ganglion and cerebral cortex upon oral administration in the rat. […] Animals have been transcardially perfused for 10 min to remove contamination by gepants present in plasma.

[2] = tested on: nausea induced by cisplatin or cyclophosphamide in the rat; test: Gaping events as index of nausea induced by cisplatin or cyclophosphamide; format: in vivo; details: 3 mg/kg oral 6 hrs before cisplatin (6 mg/kg i.p.) or cyclophosphamide (40 mg/kg i.p.), monitored for 4 hrs
Experimental: It is known that the induction of nausea by a chemical can be evaluated in rats measuring repetitive mouth opening (the so called “gaping”) (Autonomic Neuroscience, 2006, 129, 36-41). We have therefore evaluated the effects of rimegepant, ubrogepant, atogepant and zavegepant (3 mg/kg) on gaping prompted in rats by the anticancer drugs cisplatin (6 mg/kg, i.p.) or cyclophosphamide (40 mg/kg, i.p.). These drugs have been injected 6 hrs after the oral administration of the gepants to allow complete tissue drug absorption and distribution. Gaping was monitored for 4 hrs.
FIG. 2. Effects of gepants on nausea induced by cisplatin or cyclophosphamide in the rat. Rats (10 animals/group) received rimegepant, ubrogepant, atogepant and zavegepant orally (3 mg/kg) 6 hrs before an intraperitoneal injection of cisplatin (6 mg/kg) or cyclophosphamide (40 mg/kg). The number of gaping events were evaluated for 4 hrs as an index of nausea.

[3] = tested on: vomiting induced by cisplatin or cyclophosphamide in the shrew; test: Vomiting events induced by cisplatin or cyclophosphamide; format: in vivo, shrew (Suncus Murinus); details: 3 mg/kg oral 6 hrs before cisplatin (6 mg/kg i.p.) or cyclophosphamide (40 mg/kg i.p.), monitored for 4 hrs
Experimental: Specifically, we have evaluated the effects of the oral administration of rimegepant, ubrogepant, atogepant and zavegepant (3 mg/kg) on vomiting events induced in the shrew by cisplatin (6 mg/kg i.p.) or cyclophosphamide (40 mg/kg i.p.). To allow complete gepant absorption and tissue distribution, cisplatin and cyclophosphamide have been administered 6 hrs after the gepants and animals monitored for 4 hrs.
FIG. 3. Effects of gepants on vomiting induced by cisplatin or cyclophosphamide in the shrew. Shrews (10 animals/group) have been orally administered with rimegepant, ubrogepant, atogepant and zavegepant (3 mg/kg) 6 hrs before the intraperitoneal injection of cisplatin (6 mg/kg) or cyclophosphamide (40 mg/kg) and the number of vomiting events evaluated for 4 hrs.

Row | presence in brain cortex extracts [1] | presence in trigeminal ganglion extracts [1] | Compound | number of gaping events (index of nausea) compared to controls [2] | number of vomiting events compared to controls [3]
1 | detectable | detectable | N[C@@H]1c2cccnc2[C@H](OC(=O)N2CCC(n3c(=O)[nH]c4ncccc43)CC2)CC[C@H]1c1cccc(F)c1F [rimegepant] | reduced number of gaping events | reduced number of vomiting events
2 | detectable | detectable | C[C@@H]1[C@H](c2c(F)ccc(F)c2F)C[C@H](NC(=O)c2cnc3c(c2)C[C@@]2(C3)C(=O)Nc3ncccc32)C(=O)N1CC(F)(F)F [atogepant] | reduced number of gaping events | reduced number of vomiting events
3 | detectable | detectable | Cc1cc(C[C@@H](NC(=O)N2CCC(c3cc4ccccc4[nH]c3=O)CC2)C(=O)N2CCN(C3CCN(C)CC3)CC2)cc2cn[nH]c12 [zavegepant] | reduced number of gaping events | reduced number of vomiting events
4 | detectable | detectable | C[C@@H]1[C@H](c2ccccc2)C[C@H](NC(=O)c2cnc3c(c2)C[C@@]2(C3)C(=O)Nc3ncccc32)C(=O)N1CC(F)(F)F [ubrogepant] | reduced number of gaping events | reduced number of vomiting events
